Laboratory results as given in patent publication US8637470B2, “Small humanin-like peptides” (The Regents of the University of California, priority 2008, dated 2014).
“Also recorded” adds a separate entry of the source.

Assays:
[1] = system: STAT3; assay: STAT3 activation in 22RV1 cells (immunoblotting); assay type: cell-based, human; conditions: 22RV1, 100 nM
Protocol: Since HN causes activation of STAT3, SHLPs 2 and 3 were also tested for effects on STAT3. […] To more accurately quantify the ERK phosphorylation caused by SHLPs 2 and 3, we repeated the experiment as described above but used a commercially available ERK ELISA to assess ERK phosphorylation. Optimal ERK activation by SHLP2 was 9-fold after 24 h, whilst optimal activation by SHLP3 was 12-fold after 2 h (FIG. 5).

[2] = system: STAT3; assay: STAT3 phosphorylation in NIT-1 cells (immunoblotting); assay type: cell-based, mouse; conditions: NIT-1, 100 nM
Protocol: (§1) In addition to 22RV1, the effects of SHLPs on ERK and STAT3 phosphorylation were also studied in NIT-1 pancreatic β-cells. […] Indeed, the activation profile caused by SHLP3 in NIT-1 is remarkably similar to that stimulated by SHLP2 in 22RV1. When ERK activation was quantified by ELISA, a 6-fold and 9-fold activation was observed after 2 and 24 h, respectively, by SHLP2.

[3] = system: Mouse NIT-1 insulinoma β-cells; assay: Apoptosis ELISA (fragmentation of histone-associated DNA) in NIT-1 cells; assay type: cell-based; conditions: for Effect on apoptosis in the presence of IGFBP-3: NIT-1, 1 μg/ml IGFBP-3 plus SHLP; for Effect of SHLP on apoptosis after PD98059 pre-treatment: NIT-1, 25 μM PD98059 (ERK1/2 inhibitor)
Protocol: (§2) SHLPs are anti-apoptotic in 22RV1 prostate cancer cells and NIT-1 β-cells. […] Mouse NIT-1 insulinoma β-cells and 22RV1 human prostate cancer cells were serum starved for 24 h, followed by 24 h incubation with 100 nM scrambled control peptide, HN or SHLPs. Apoptosis was assessed and quantified by ELISA for fragmentation of histone-associated DNA.
(§3) ERK activation is necessary for SHLP-induced inhibition of apoptosis in NIT-1 and 22RV1 cells. To determine the significance of ERK activation for apoptosis inhibition by SHLPs 2 and 3, PD98059 (PD), a specific chemical inhibitor of ERK1/2, was utilized. 22RV1 and NIT-1 cells were serum starved for 24 h in the presence or absence of 25 μM PD or 1 μM wortmannin (PI3-kinase inhibitor; negative control), followed by 24 h incubation with […] scrambled control peptide, SHLP2 or SHLP3. Apoptosis was then assessed by ELISA for fragmentation of histone-associated DNA.
Role of IGFBP-3 in effects of SHLPs on cell survival. Since IGFBP-3 is an important regulator of HN action, IGFBP-3 was tested for a possible role in regulating the anti- or pro-apoptotic actions of SHLPs. NIT-1 cells were incubated with 1 μg/ml IGFBP-3±0, 10, 100 or 1000 nM SHLP2 or 3 for 24 h. Apoptosis induction was assessed by ELISA for fragmentation of histone-associated DNA.
Co-incubation of SHLPs. To evaluate therapeutic uses involving co-treatment with SHLPs, the effect of HN±SHLPs on apoptosis was tested in both 22RV1 and NIT-1 cells. Cells were incubated in SF media for 24 h followed by 24 h with 100 nM HN, SHLP or peptide combination. Apoptosis was assessed by ELISA for fragmentation of histone-associated DNA. Cells were treated with all possible double peptide combinations. Although many peptide combinations had no additive or combined effects compared with the actions of the peptides individually, co-treatment with certain combinations led to unexpected functional changes (FIG. 11). […] Thus, specific SHLPs may either act on complementary pathways, or interact with each other, leading to change of function of one or both peptides. When the same experiments were repeated in NIT-1 cells, similar, but different, change of function effects were observed (FIG. 11B).

[4] = system: S. cerevisiae; assay: Yeast heat shock survival; assay type: cell-based; conditions: 10 μM peptide, 90° heat shock
Protocol: SHLPs enhance stress resistance in yeast. The ability of SHLPs to enhance stress resistance in yeast was tested. The ability of yeast to survive heat shock after being treated with different peptides is a commonly used method to test the ability of peptides to enhance yeast survival.

[5] = system: murine 3T3-L1 fibroblasts; assay: 3T3-L1 adipocyte differentiation (oil red-O staining); assay type: cell-based; conditions: 100 nM peptide with 10 nM insulin, 7 days
Protocol: SHLPs 2 and 3 Stimulate Adipocyte Differentiation of 3T3-L1 Cells in vitro. […] We next assessed the ability of SHLP2, 3 and 6 to modulate the differentiation of 3T3-L1 adipocytes. Differentiation was induced in murine 3T3-L1 fibroblasts by incubation in 1 μM dexamethasone, 100 nM insulin, and 500 μM lisobutylmethyxanthine for 2 days, followed by incubation with 10 nM insulin in the presence of 100 nM scrambled peptide (control), SHLP2, SHLP3 or SHLP6 for 7 days. Differentiation was assessed by oil red-0 staining as a measure of oil droplet formation.

[6] = system: ERK; assay: ERK phosphorylation in NIT-1 cells (immunoblotting, ELISA); assay type: cell-based, mouse; conditions: NIT-1, 100 nM
Protocol: as §1

[7] = system: 22RV1 human prostate cancer cells; assay: Apoptosis ELISA (fragmentation of histone-associated DNA) in 22RV1 cells; assay type: cell-based; conditions: for Protective effect of SHLP on apoptosis after stattic pre-treatment: 22RV1, 20 μM stattic (STAT3 inhibitor), 100 nM peptide; for Effect of SHLP on apoptosis after PD98059 pre-treatment: 22RV1, 25 μM PD98059 (ERK1/2 inhibitor); for Apoptosis (fragmentation of histone-associated DNA): 22RV1, serum starved 24 h, then 24 h with 100 μM peptide
Protocol: as §2, §3
STAT3 Activation is also necessary for SHLP-induced cell survival in 22RV1 cells. Since SHLPs 2 and 3 both stimulate STAT3 phosphorylation in addition to ERK activation, the hypothesis that STAT3 activation occurs downstream of ERK1/2 was tested using a specific chemical inhibitor against STAT3, stattic. 22RV1 cells were incubated for 24 h in SF media in the presence or absence of 20 μM stattic followed by 24 h incubation with 100 nM scrambled control peptide, SHLP2 or SHLP3. Apoptosis was assessed by ELISA for fragmentation of histone-associated DNA. […]

[8] = NIT-1, 0, 10, 100 or 1000 nM SHLP, 24 h

Row | Sequence | STAT3 activation (immunoblotting) [1] | STAT3 activation/phosphorylation (immunoblotting) [2] | Apoptosis (fragmentation of histone-associated DNA) [3, 8] | Effect on apoptosis in the presence of IGFBP-3 ([3]; 24 h) | Effect of SHLP on apoptosis after PD98059 pre-treatment [3] | Yeast survival of heat shock [4] | Adipocyte differentiation (oil red-O staining) [5] | ERK phosphorylation profile (immunoblotting) [6] | ERK activation (ELISA) ([6]; after 2 h) | ERK activation (ELISA) ([6]; after 24 h) [fold] | Protective effect of SHLP on apoptosis after stattic pre-treatment [7] | Effect of SHLP on apoptosis after PD98059 pre-treatment [7] | Apoptosis (fragmentation of histone-associated DNA) [7] | SHLP-induced cell survival after wortmannin pre-treatment ([3]; NIT-1, 1 μM wortmannin (PI3-kinase inhibitor)) | Apoptosis (fragmentation of histone-associated DNA) ([3]; NIT-1, serum starved 24 h, then 24 h with 100 nM peptide) | SHLP-induced cell survival after wortmannin pre-treatment ([7]; 22RV1, 1 μM wortmannin (PI3-kinase inhibitor))
1 | MLGYNFSSFPCGTISIAPGFNFYRLYFIWVNGLAKVVW [SHLP3, small humanin-like peptide, mtDNA 1707-1821] | significantly enhanced STAT3 activation | only slightly stimulate | reduced levels of apoptosis | inhibit IGFBP-3-induced apoptosis | abrogated | allowed the yeast to withstand 90° heat shock; also recorded: enhance yeast survival against heat shock | strikingly induced adipocyte differentiation; also recorded: stimulate 3T3-L1 adipocyte differentiation | more delayed response | no detectable increase | 15 | abrogated the protective effects | abrogated | significantly inhibited | – | – | –
2 | MGVKFFTLSTRFFPSVQRAVPLWTNS [SHLP2, small humanin-like peptide, mtDNA 2092-2170] | significantly enhanced STAT3 activation | temporally similar to the timing of ERK activation | dose dependent inhibition of apoptosis | unaffected by the presence of IGFBP-3 | abrogated | allowed the yeast to withstand 90° heat shock; also recorded: enhance yeast survival against heat shock | strikingly induced adipocyte differentiation; also recorded: stimulate 3T3-L1 adipocyte differentiation | detected within 30 min | 6 fold | 9 | abrogated the protective effects | abrogated | significantly inhibited | not in NIT-1 cells | significantly inhibited | inhibited SHLP2-induced cell survival
